Tested on: P12-Ichikawa
Test: cell viability relative to DMSO control; higher = less cytotoxic
Details: 48 h
Summary of the method: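 In 1536-well plates, 5 μl of leukemia cells were seeded per well: 500 cells/well for NOMO1 or SEM and 1000 cells/well for P12-Ichikawa. Each line had first been adapted for at least four passages in each medium. Library compounds in DMSO were pin-dosed at 11 threefold concentrations between 47 μM and 0.79 nM, and CellTiter-Glo One luminescence was read after 48 h at 37°C. Viability is a per-plate percentage relative to DMSO wells, with cell-free wells as background.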

[1] = HPLM + 10% dialyzed FBS, 0.000781 µM
[2] = HPLM + 10% dialyzed FBS, 0.00234 µM
[3] = HPLM + 10% dialyzed FBS, 0.00702 µM
[4] = HPLM + 10% dialyzed FBS, 0.0211 µM
[5] = HPLM + 10% dialyzed FBS, 0.0632 µM
[6] = HPLM + 10% dialyzed FBS, 0.19 µM
[7] = HPLM + 10% dialyzed FBS, 0.569 µM
[8] = HPLM + 10% dialyzed FBS, 1.71 µM
[9] = HPLM + 10% dialyzed FBS, 5.12 µM
[10] = HPLM + 10% dialyzed FBS, 15.4 µM
[11] = HPLM + 10% dialyzed FBS, 46.1 µM
[12] = RPMI 5 mM glucose + 10% FBS, 0.000781 µM
[13] = RPMI 5 mM glucose + 10% FBS, 0.00234 µM
[14] = RPMI 5 mM glucose + 10% FBS, 0.00702 µM
[15] = RPMI 5 mM glucose + 10% FBS, 0.0211 µM
[16] = RPMI 5 mM glucose + 10% FBS, 0.0632 µM
[17] = RPMI 5 mM glucose + 10% FBS, 0.19 µM
[18] = RPMI 5 mM glucose + 10% FBS, 0.569 µM
[19] = RPMI 5 mM glucose + 10% FBS, 1.71 µM
[20] = RPMI 5 mM glucose + 10% FBS, 5.12 µM
[21] = RPMI 5 mM glucose + 10% FBS, 15.4 µM
[22] = RPMI 5 mM glucose + 10% FBS, 46.1 µM
[23] = RPMI 5 mM glucose + 10% dialyzed FBS, 0.000781 µM
[24] = RPMI 5 mM glucose + 10% dialyzed FBS, 0.00234 µM
[25] = RPMI 5 mM glucose + 10% dialyzed FBS, 0.00702 µM
[26] = RPMI 5 mM glucose + 10% dialyzed FBS, 0.0211 µM
[27] = RPMI 5 mM glucose + 10% dialyzed FBS, 0.0632 µM
[28] = RPMI 5 mM glucose + 10% dialyzed FBS, 0.19 µM
[29] = RPMI 5 mM glucose + 10% dialyzed FBS, 0.569 µM
[30] = RPMI 5 mM glucose + 10% dialyzed FBS, 1.71 µM
[31] = RPMI 5 mM glucose + 10% dialyzed FBS, 5.12 µM
[32] = RPMI 5 mM glucose + 10% dialyzed FBS, 15.4 µM
[33] = RPMI 5 mM glucose + 10% dialyzed FBS, 46.1 µM

Compound	cell viability [1] [%]	cell viability [2] [%]	cell viability [3] [%]	cell viability [4] [%]	cell viability [5] [%]	cell viability [6] [%]	cell viability [7] [%]	cell viability [8] [%]	cell viability [9] [%]	cell viability [10] [%]	cell viability [11] [%]	cell viability [12] [%]	cell viability [13] [%]	cell viability [14] [%]	cell viability [15] [%]	cell viability [16] [%]	cell viability [17] [%]	cell viability [18] [%]	cell viability [19] [%]	cell viability [20] [%]	cell viability [21] [%]	cell viability [22] [%]	cell viability [23] [%]	cell viability [24] [%]	cell viability [25] [%]	cell viability [26] [%]	cell viability [27] [%]	cell viability [28] [%]	cell viability [29] [%]	cell viability [30] [%]	cell viability [31] [%]	cell viability [32] [%]	cell viability [33] [%]
CN(C)C1CCN(C(=O)c2ccc(NC(=O)Nc3nc(N4CCOCC4)nc(N4CCOCC4)n3)cc2)CC1	91.2	92	101	91.7	75.9	76	66.4	64.2	57.8	34.3	20.9	85.6	84.9	82.6	73	56	58.5	48.2	42.2	35.4	34.7	22.9	83.7	85.5	80.6	78.6	61.6	56.2	47.4	43.4	41.5	34	20.1
CC[C@H](/C=C/[C@@H](C)[C@H]1CC[C@H]2[C@@H]3CC=C4C[C@@H](O)CC[C@]4(C)[C@H]3CC[C@]12C)C(C)C	100	109	94.3	99.3	104	101	99.5	93.2	87.7	85.9	87.5	92.9	94.3	97.1	95.9	105	96.3	94.9	91.3	89.6	83.9	93.7	92.7	95.2	93	87.3	91.8	94.6	88.4	87.8	87	85.2	86.6
S=C(NCc1ccc2c(c1)OCO2)N1CCN(c2ncnc3c2oc2ccccc23)CC1	115	111	114	106	111	102	105	95.6	69.5	65.2	33.2	105	106	108	103	111	102	96.2	74.1	52.7	54	29.6	114	110	115	106	107	108	99	77.8	60.4	64.6	35.3
Clc1ccc(-c2nc3sccn3c2/C=N/OCc2ccc(Cl)c(Cl)c2)cc1	114	109	107	112	108	103	104	106	101	99.9	98	111	113	118	102	113	108	110	110	98.5	96.5	98.9	114	110	101	110	110	100	102	101	91.3	101	102
CC(C)N[C@@H]1CCn2c(=O)[nH]c3cccc(c32)[C@H]1O	111	112	118	120	117	115	109	112	97.1	107	100	129	112	121	122	114	104	116	110	110	113	106	105	104	116	114	109	108	99.6	105	104	97.9	93.8
OC[C@@H](O)[C@@H](O)[C@H](O)[C@@H](O)CO	106	110	107	108	127	127	112	112	124	114	122	116	115	122	123	136	126	132	141	130	135	139	109	109	120	109	123	123	117	120	126	118	127
CC(C)c1nc(CN(C)C(=O)N[C@H](C(=O)N[C@@H](Cc2ccccc2)C[C@H](O)[C@H](Cc2ccccc2)NC(=O)OCc2cncs2)C(C)C)cs1	91.9	87.4	87.2	102	103	92.1	78.4	78.2	83.9	85.8	89.6	87.2	86.5	87.7	84.2	92.4	92.6	77.2	90.1	81.5	79.8	88.2	85.3	79.8	89.4	83.4	92.6	87.2	70.8	82.2	77.9	82.8	82.3
CC(C)CNc1ccnc(NCc2csc(-c3ccccc3)n2)n1	110	123	128	132	130	132	127	115	101	96.3	63.6																						
CCC1(c2ccccc2)C(=O)NCNC1=O	103	114	118	120	120	118	121	119	116	118	119	104	111	122	128	134	127	129	126	142	143	131	94.5	109	118	115	120	116	117	118	126	121	117
CC1(C)O[C@@H]2C[C@H]3[C@@H]4C[C@H](F)C5=CC(=O)C=C[C@]5(C)[C@@]4(F)[C@@H](O)C[C@]3(C)[C@]2(C(=O)CO)O1	107	110	99.4	83.8	71.1	56.4	69.1	60.7	52.6	62.9	53	106	99.4	96.4	78.7	55.4	53.2	50.2	53	51.7	46.4	43.5	74.9	103	94.6	67.9	50.8	46.7	47.6	42.5	40.6	36.8	30.4
CC[S+](=O)([O-])c1cccc(-c2cc(C(=O)NC3CCN(C)CC3)c(C)c3[nH]c4ncc(C)cc4c23)c1	121	122	123	128	123	112	15.7	19.5	19	26.9	34.9																						
CNC(=O)c1ccc2cc(C3(O)CCn4cncc43)ccc2c1 (stereo not given)	123	127	115	115	119	123	102	102	108	108	114	123	127	119	127	131	125	129	122	111	133	110	126	117	121	125	118	120	110	117	107	118	105
C[C@]12CC[C@@H]3c4ccc(O)cc4CC[C@H]3[C@@H]1[C@@H](O)[C@@H](O)[C@@H]2O	119	117	119	112	120	124	122	120	119	125	124	105	113	109	104	123	118	122	121	126	131	113	111	120	118	115	120	127	127	133	127	129	135
C[C@]12COC(=O)C[C@@H]1CC[C@@H]1[C@@H]2CC[C@@]2(C)[C@H]1CC[C@]2(C)O	105	107	117	107	110	102	107	103	102	100	88.1	106	109	101	100	107	105	113	98.3	101	103	97.4	101	98.6	97.5	104	92.3	101	99.2	104	94.1	98.7	95.2
CC(C)OC(=O)C(C(=O)OC(C)C)=C1S\C=C/S1	138	124	122	133	113	124	123	124	126	118	101																						
C[C@H]1C[C@@H]2[C@H](CC[C@@]3(C)[C@H]2CC[C@]3(OC(C)=O)C(C)=O)[C@@]\4(C)CCC(=O)\C=C14	99.8	105	111	107	122	115	114	107	98.7	95.5	107	112	112	123	108	113	113	110	101	94.3	80.3	96.3	101	113	102	107	120	103	96.3	93.7	96	80.1	88.4
O=C(O)C1(Cc2cccc(Nc3nccs3)n2)CCC(Oc2cccc(Cl)c2F)CC1 (stereo not given)	102	111	112	108	115	114	99.5	57.8	39.4	18.8	13.7	102	116	108	93.8	122	111	108	65.8	47.1	33.9	17.3	108	116	118	116	116	117	115	68.9	65.2	33.5	31.8
